From patent publication US20130065818A1, “Arylamide Compounds And Compositions And Uses Thereof” (POLYMEDIX, priority 2006, published 2013)
In brackets after ≈: the same amount, converted by molar mass. Read-outs that look alike come from different tables or passages of the source.

Legend:
[1] = system: Staphylococcus aureus fluoroquinolone-resistant; assay: MIC, 25 ocular isolates, broth microdilution (Example 8); type: cell-based
Description: (§1) • Mueller-Hinton Broth in tubes was inoculated with 25 ocular isolates of Staphylococcus aureus fluoroquinolone-susceptible, Staphylococcus aureus fluoroquinolone-resistant, Staphylococcus epidermidis (Coagulase-negative Staphylococcus) fluoroquinolone-susceptible, Staphylococcus epidermidis (Coagulase-negative Staphylococcus) fluoroquinolone-resistant, Pseudomonas aeruginosa and Serratia marcescens, plus two controls (Staphylococcus aureus and E. coli) and incubated at 37° C. overnight on a shaker set at 250 rpm.
(§2) On the day of testing, a 640 μg/ml (1280 μg/ml for Serratia marcescens and Pseudomonas aeruginosa) concentration was prepared from a 1% stock solution in 0.01% acetic acid, 0.2% BSA in polypropylene tubes.
(§3) Serial doubling dilutions in 0.01% acetic acid, 0.2% BSA in 96 well polypropylene plates, which are used as reservoirs for the inoculation of the test plates, were carried out to obtain serial dilutions of test agents at 10 times the required test concentrations: 640, 320, 160, 80, 40, 20, 10, 5, 2.5, 1.25, and 0.625 μg/ml (1280, 640, 320, 160, 80, 40, 20, 10, 5, 2.5, and 1.25 μg/ml for Serratia marcescens and Pseudomonas aeruginosa).
(§4) Ten μl of diluted 10×test agents was added to each well of one row of the 96 well polypropylene plates from column 2 to column 12 (column 1 is a control for bacteria alone, with no peptide). Test agent concentrations in columns 2-12 were as follows: 64, 32, 16, 8, 4, 2, 1, 0.5, 0.25, 0.125, and 0.0625 μg/ml (128, 64, 32, 16, 8, 4, 2, 1, 0.5, 0.25, and 0.125 μg/ml for Serratia marcescens and Pseudomonas aeruginosa). The same peptide was in each of the 8 rows. One plate contained dilutions of one test agent and 8 bacterial isolates.
(§5) On the day of testing, the overnight bacterial broth cultures of Staphylococcus aureus fluoroquinolone-susceptible, Staphylococcus aureus fluoroquinolone-resistant, Staphylococcus epidermidis (Coagulase-negative Staphylococcus) fluoroquinolone-susceptible, Staphylococcus epidermidis (Coagulase-negative Staphylococcus) fluoroquinolone-resistant, Serratia marcescens, and Pseudomonas aeruginosa, plus two controls (Staphylococcus aureus and E. coli) were diluted in 5 ml of trypticase soy broth to yield turbidity equal to a 0.5 McFarland standard. The final inoculum for MIC testing for Staphylococcus aureus fluoroquinolone-susceptible, Staphylococcus aureus fluoroquinolone-resistant, Staphylococcus epidermidis (Coagulase-negative Staphylococcus) fluoroquinolone-susceptible, Staphylococcus epidermidis (Coagulase-negative Staphylococcus) fluoroquinolone-resistant, Serratia marcescens, and Pseudomonas aeruginosa was achieved by placing 0.05 ml of the turbidity adjusted sample to 5 ml of Mueller-Hinton broth.
(§6) Ninety μl of the bacterial suspensions was dispensed in each well from column 1 to column 12. Each bacterial isolate was placed in one row of a 96 well polypropylene plate containing the test agents. The plates were placed on shaker at 15 minutes at room temperature, and then incubated at 37° C. overnight. MICs were determined visually as the lowest concentration of drug that inhibits visible bacterial growth.

Serratia marcescens = assay: as above; type: cell-based
Description: as §1, §2, §3, §4, §5, §6

Q: What does the source list for `N=C(N)NCCCCC(=O)Nc1cc(C(F)(F)F)cc(NC(=O)c2cc(C(=O)Nc3cc(C(F)(F)F)cc(NC(=O)CCCCNC(=N)N)c3O[C@@H]3CCNC3)ncn2)c1O[C@@H]1CCNC1` [Oligomer 4]?
A: MIC50 ([1]; 25 isolates, Row 13): 0.25 µg/mL (≈ 0.267 µM); MIC90 ([1]; 25 isolates, Row 22): 0.5 µg/mL (≈ 0.534 µM); Range of MICs ([1]; 25 isolates, Summary of Results): 0.125 to 1.0 µg/mL; MIC ([1]; Staphylococcus aureus, 25 ocular isolates, read-out: Median MIC): ≤ 0.25 µg/mL; MIC ([1]; Staphylococcus aureus, isolate 1—E504, read-out: MIC): 0.25 µg/mL (≈ 0.267 µM); MIC ([1]; Staphylococcus aureus, isolate 2—E475, read-out: MIC): 0.25 µg/mL (≈ 0.267 µM); MIC ([1]; Staphylococcus aureus, isolate 3—E442, read-out: MIC): 0.25 µg/mL (≈ 0.267 µM); MIC ([1]; Staphylococcus aureus, isolate 4—E427, read-out: MIC): 0.5 µg/mL (≈ 0.534 µM); MIC ([1]; Staphylococcus aureus, isolate 5—E425, read-out: MIC): 0.25 µg/mL (≈ 0.267 µM); MIC ([1]; Staphylococcus aureus, isolate 6—E424, read-out: MIC): 0.25 µg/mL (≈ 0.267 µM); MIC ([1]; Staphylococcus aureus, isolate 7—E417, read-out: MIC): 1 µg/mL (≈ 1.07 µM); MIC ([1]; Staphylococcus aureus, isolate 8—E407, read-out: MIC): 0.25 µg/mL (≈ 0.267 µM); MIC ([1]; Staphylococcus aureus, isolate 9—E401, read-out: MIC): 0.25 µg/mL (≈ 0.267 µM); MIC ([1]; Staphylococcus aureus, isolate 10—K1659, read-out: MIC): 0.25 µg/mL (≈ 0.267 µM); MIC ([1]; Staphylococcus aureus, isolate 11—E96, read-out: MIC): 0.125 µg/mL (≈ 0.133 µM); MIC ([1]; Staphylococcus aureus, isolate 12—E379, read-out: MIC): 0.5 µg/mL (≈ 0.534 µM); MIC ([1]; Staphylococcus aureus, isolate 13—E369, read-out: MIC): 0.125 µg/mL (≈ 0.133 µM); MIC ([1]; Staphylococcus aureus, isolate 14—E361, read-out: MIC): 0.25 µg/mL (≈ 0.267 µM); MIC ([1]; Staphylococcus aureus, isolate 15—E339, read-out: MIC): 0.25 µg/mL (≈ 0.267 µM); MIC ([1]; Staphylococcus aureus, isolate 16—E333, read-out: MIC): 0.25 µg/mL (≈ 0.267 µM); MIC ([1]; Staphylococcus aureus, isolate 17—E332, read-out: MIC): 0.25 µg/mL (≈ 0.267 µM); MIC ([1]; Staphylococcus aureus, isolate 18—E327, read-out: MIC): 0.5 µg/mL (≈ 0.534 µM); MIC ([1]; Staphylococcus aureus, isolate 19—E325, read-out: MIC): 0.5 µg/mL (≈ 0.534 µM); MIC ([1]; Staphylococcus aureus, isolate 20—K950, read-out: MIC): 0.5 µg/mL (≈ 0.534 µM); MIC ([1]; Staphylococcus aureus, isolate 21—K839, read-out: MIC): 0.25 µg/mL (≈ 0.267 µM); MIC ([1]; Staphylococcus aureus, isolate 22—K1679, read-out: MIC): 0.25 µg/mL (≈ 0.267 µM); MIC ([1]; Staphylococcus aureus, isolate 23—K1677, read-out: MIC): 0.25 µg/mL (≈ 0.267 µM); MIC ([1]; Staphylococcus aureus, isolate 24—K1672, read-out: MIC): 0.25 µg/mL (≈ 0.267 µM); MIC ([1]; Staphylococcus aureus, isolate 25—K1670, read-out: MIC): 0.25 µg/mL (≈ 0.267 µM); MIC ([1]; Staphylococcus aureus, n=25 per group, read-out: Median MIC): 0.25 µg/mL (≈ 0.267 µM); MIC50 ([1]; Staphylococcus aureus, 25 isolates, Summary of Results, read-out: MIC50): 0.25 µg/mL (≈ 0.267 µM); MIC90 ([1]; Staphylococcus aureus, 25 isolates, Summary of Results, read-out: MIC90): 0.5 µg/mL (≈ 0.534 µM); MIC ([1]; Staphylococcus aureus, 25 isolates, Summary of Results, read-out: Median MIC): 0.25 µg/mL (≈ 0.267 µM); MIC50 ([1]; n=25 per group): 0.25 µg/mL (≈ 0.267 µM); MIC90 ([1]; n=25 per group): 0.5 µg/mL (≈ 0.534 µM); Range of MICs ([1]; n=25 per group): 0.125 to 1.0 µg/mL; MIC50 (Serratia marcescens; 25 isolates, Row 13, >128 was Replaced with 256): 8 µg/mL (≈ 8.54 µM); MIC90 (Serratia marcescens; 25 isolates, Row 22, >128 was Replaced with 256): 32 µg/mL (≈ 34.2 µM); Range of MICs (Serratia marcescens; 25 isolates, Summary of Results, >128 was Replaced with 256): 0.25 to 32 µg/mL; MIC (Serratia marcescens; Serratia marcescens, 25 ocular isolates, read-out: Median MIC): 8 µg/mL (≈ 8.54 µM); MIC (Serratia marcescens; Serratia marcescens, isolate 1—K1681, read-out: MIC): 32 µg/mL (≈ 34.2 µM); MIC (Serratia marcescens; Serratia marcescens, isolate 2—K1674, read-out: MIC): 32 µg/mL (≈ 34.2 µM); MIC (Serratia marcescens; Serratia marcescens, isolate 3—K1558, read-out: MIC): 4 µg/mL (≈ 4.27 µM); MIC (Serratia marcescens; Serratia marcescens, isolate 4—K1538, read-out: MIC): 16 µg/mL (≈ 17.1 µM); MIC (Serratia marcescens; Serratia marcescens, isolate 5—K1503, read-out: MIC): 32 µg/mL (≈ 34.2 µM); MIC (Serratia marcescens; Serratia marcescens, isolate 6—K1216, read-out: MIC): 4 µg/mL (≈ 4.27 µM); MIC (Serratia marcescens; Serratia marcescens, isolate 7—K1496, read-out: MIC): 8 µg/mL (≈ 8.54 µM); MIC (Serratia marcescens; Serratia marcescens, isolate 8—K1481, read-out: MIC): 2 µg/mL (≈ 2.13 µM); MIC (Serratia marcescens; Serratia marcescens, isolate 9—K1470, read-out: MIC): 32 µg/mL (≈ 34.2 µM); MIC (Serratia marcescens; Serratia marcescens, isolate 10—K1468, read-out: MIC): 2 µg/mL (≈ 2.13 µM); MIC (Serratia marcescens; Serratia marcescens, isolate 11—K1467, read-out: MIC): 32 µg/mL (≈ 34.2 µM); MIC (Serratia marcescens; Serratia marcescens, isolate 12—K1462, read-out: MIC): 16 µg/mL (≈ 17.1 µM); MIC (Serratia marcescens; Serratia marcescens, isolate 13—K1461, read-out: MIC): 8 µg/mL (≈ 8.54 µM); MIC (Serratia marcescens; Serratia marcescens, isolate 14—K1413, read-out: MIC): 16 µg/mL (≈ 17.1 µM); MIC (Serratia marcescens; Serratia marcescens, isolate 15—K1402, read-out: MIC): 0.25 µg/mL (≈ 0.267 µM); MIC (Serratia marcescens; Serratia marcescens, isolate 16—K1357, read-out: MIC): 1 µg/mL (≈ 1.07 µM); MIC (Serratia marcescens; Serratia marcescens, isolate 17—K1351, read-out: MIC): 0.5 µg/mL (≈ 0.534 µM); MIC (Serratia marcescens; Serratia marcescens, isolate 18—K1327, read-out: MIC): 8 µg/mL (≈ 8.54 µM); MIC (Serratia marcescens; Serratia marcescens, isolate 19—K1321, read-out: MIC): 8 µg/mL (≈ 8.54 µM); MIC (Serratia marcescens; Serratia marcescens, isolate 20—K1315, read-out: MIC): 16 µg/mL (≈ 17.1 µM); MIC (Serratia marcescens; Serratia marcescens, isolate 21—K1306, read-out: MIC): 8 µg/mL (≈ 8.54 µM); MIC (Serratia marcescens; Serratia marcescens, isolate 22—K1290, read-out: MIC): 8 µg/mL (≈ 8.54 µM); MIC (Serratia marcescens; Serratia marcescens, isolate 23—K1265, read-out: MIC): 8 µg/mL (≈ 8.54 µM); MIC (Serratia marcescens; Serratia marcescens, isolate 24—K1263, read-out: MIC): 8 µg/mL (≈ 8.54 µM); MIC (Serratia marcescens; Serratia marcescens, isolate 25—K1239, read-out: MIC): 8 µg/mL (≈ 8.54 µM); MIC (Serratia marcescens; Serratia marcescens, n=25 per group, read-out: Median MIC): 8 µg/mL (≈ 8.54 µM); MIC50 (Serratia marcescens; Serratia marcescens, 25 isolates, Summary of Results, >128 was Replaced with 256, read-out: MIC50): 8 µg/mL (≈ 8.54 µM); MIC90 (Serratia marcescens; Serratia marcescens, 25 isolates, Summary of Results, >128 was Replaced with 256, read-out: MIC90): 32 µg/mL (≈ 34.2 µM); MIC (Serratia marcescens; Serratia marcescens, 25 isolates, Summary of Results, >128 was Replaced with 256, read-out: Median MIC): 8 µg/mL (≈ 8.54 µM); MIC50 (Serratia marcescens; n=25 per group): 8 µg/mL (≈ 8.54 µM); MIC90 (Serratia marcescens; n=25 per group): 32 µg/mL (≈ 34.2 µM); Range of MICs (Serratia marcescens; n=25 per group): 0.25 to 32 µg/mL
